In brackets after ≈: the same amount, converted by molar mass.
What was measured:
[1] = test system: Pseudomonas aeruginosa (IMP-18); assay: Broth microdilution antibiotic susceptibility (MicroScan dehydrated panels, NCCLS criteria); assay type: cell-based; conditions: for MIC: Pseudomonas aeruginosa, read-out: Microdilution MICs
Experimental: The carbapenem-resistant P. aeruginosa isolate investigated in this study was recovered from the tracheal aspirate of a motorcycle accident victim in the southwestern United States.
The isolate was identified by the Phoenix system (Becton Dickinson Diagnostic Systems, Sparks, Md.). Antibiotic susceptibility was determined by broth microdilution method with investigational dehydrated panels provided by Dade Behring MicroScan (Sacramento, Calif.) according to the manufacturer's recommendations and interpreted according to National Committee for Clinical Laboratory Standards (NCCLS) criteria (National Committee for Clinical Laboratory Standards, “Performance Standards for Antimicrobial Susceptibility Testing, Fourteenth informational supplement 24, Wayne, Pa. (2004)).

[2] = test system: Pseudomonas aeruginosa (IMP-18); assay: Etest metallo-beta-lactamase strip (imipenem with/without EDTA); assay type: cell-based
Excerpt: Metallo-beta-lactamase production was phenotypically investigated by using the Etest metallo-beta-lactamase strip (AB BIODISK, Solna, Sweden).

[3] = carbapenem-resistant P. aeruginosa clinical isolate producing IMP-18, broth microdilution

## NCC[C@H](O)C(=O)N[C@@H]1C[C@H](N)[C@@H](O[C@H]2O[C@H](CN)[C@@H](O)[C@H](O)[C@H]2O)[C@H](O)[C@H]1O[C@H]1O[C@H](CO)[C@@H](O)[C@H](N)[C@H]1O [Amikacin]
[1]; [3]
  MIC: 64 µg/mL (≈ 109 µM)

## C[C@H]1[C@H](NC(=O)/C(=N\OC(C)(C)C(=O)O)c2csc(N)n2)C(=O)N1S(=O)(=O)O [Aztreonam]
[1]; [3]
  MIC: 32 µg/mL (≈ 73.5 µM)

## CO/N=C(\C(=O)N[C@@H]1C(=O)N2C(C(=O)[O-])=C(C[N+]3(C)CCCC3)CS[C@H]12)c1csc(N)n1 [Cefepime]
[1]; [3]
  MIC: > 64 µg/mL

## CC(C)(O/N=C(\C(=O)N[C@@H]1C(=O)N2C(C(=O)[O-])=C(C[n+]3ccccc3)CS[C@H]12)c1csc(N)n1)C(=O)O [Ceftazidime]
[1]; [3]
  MIC: > 64 µg/mL

## CO/N=C(\C(=O)N[C@@H]1C(=O)N2C(C(=O)O)=C(CSc3nc(=O)c(=O)[nH]n3C)CS[C@H]12)c1csc(N)n1 [Ceftriaxone]
[1]; [3]
  MIC: > 64 µg/mL

## C[C@@H](O)[C@H]1C(=O)N2C(C(=O)O)=C(SCCN=CN)C[C@H]12 [Imipenem]
[1]; [3]
  MIC: 64 µg/mL (≈ 214 µM)
[2]; Pseudomonas aeruginosa, without EDTA
  MIC: ≥ 256 µg/mL
[2]; in the presence of EDTA
  MIC of imipenem by Etest in the presence of EDTA: 8 µg/mL
[2]; with vs without EDTA
  fold reduction in the MIC of imipenem in the presence of EDTA: ≥ 32 fold

## C[C@H]1COc2c(N3CCN(C)CC3)c(F)cc3c(=O)c(C(=O)O)cn1c23 [Levofloxacin]
[1]; [3]
  MIC: > 16 µg/mL

## CN(C)c1ccc(O)c2c1C[C@H]1C[C@H]3[C@H](N(C)C)C(O)=C(C(N)=O)C(=O)[C@@]3(O)C(O)=C1C2=O [Minocycline]
[1]; [3]
  MIC: > 128 µg/mL

## CN(C)c1cc(NC(=O)CNC(C)(C)C)c(O)c2c1C[C@H]1C[C@H]3[C@H](N(C)C)C(O)=C(C(N)=O)C(=O)[C@@]3(O)C(O)=C1C2=O [Tigecycline]
[1]
  MIC: 32 µg/mL (≈ 54.6 µM)

## Gentamicin
[1]; [3]
  Microdilution MICs: >32 µg/mL

## Polymyxin B
[1]; [3]
  Microdilution MICs: 4 µg/mL

Reference: patent US20090317807A1, “Primers for Use in Detecting Metallo-Beta-Lactamases” (priority 2006, published 2009)
